{
  "source": "patent US9149469B2",
  "about": "“Pharmaceutical composition and a process thereof” (INDUS Biotech PVT. Ltd., priority 2007, dated 2015)",
  "key": {"[1]": {"tested_on": "6-OHDA unilateral lesion of the dopaminergic nigrostriatal pathway", "test": "6-Hydroxydopamine model (rotation)", "type": "in vivo, Male Wistar mice", "description": "6-Hydroxydopamine (6-OHDA) is a neurotoxin which causes a unilateral lesion of the dopaminergic nigrostriatal pathway that induces hypersensitivity of the post synaptic dopaminergic receptor in the striatum of the lesioned side. An indirect acting compound like amphetamine is administered the mice rotate toward the lesioned side (ipsilateral) as opposed to when a direct acting dopaminergic drug is administered which causes then to rotate contra laterally. Therefore, this test can be used for the study of central dopamine function and the evaluation of dopamine antagonists and agonists, particularly the activity of novel anti-parkinsonian drugs. This test clearly distinguishes drugs with predominantly dopamine receptor agonist activity from those with predominantly dopamine releasing activity of the drug.\nProcedure: Male Wistar […] weighing 200-250 grams at the time of surgery are used. They are housed individually in a controlled environment with free access to food and water. The animals are anaesthetized with sodium pentobarbital. The head is placed in a stereotaxic device (DKI 900) and positioned according to the atlas of Konig and Klippel. After a sagittal cut is made in the skin of the skull, a 2 mm wide hole is drilled with an electrical trepan drill. Care is taken not to lesion the meninges. A 30 gauge stainless-steel cannula connected to a Hamilton syringe is aimed at the anterior zona compacta of the substantia nigra (coordinates anterior 1.88 mm, lateral 2.0 mm and dorso-ventral—8.2 mm from instrument zero). A total of 8 μg of […] in 4 γ/L of saline is injected at a rate of 1 γ/L/min. After the intra-cranial injection, the wound is closed.\nThe animal is allowed several weeks for recovery and for development of the lesion. Specially constructed opaque plastic spheres attached to solid state programming equipment serve as test chambers. The number of full turns, either ipsilateral or contra lateral to the lesion, are recorded on an automatic printout counter every 15 min for one or two hours test sessions. To determine the control values for ipsilateral turning, each subject is administered 2.5 mg/kg of d amphetamine and immediately placed in the circling chamber for 2 hours Control values for contra lateral circling are determined by injecting apomorphine at 1 mg/kg s.c. and recording the rat's circling for 1 hour. Test compounds are given i.p or sc. And the animals placed into the circling chambers. Circling is recorded over a 1 hour period. This experiment is conducted in 30 animals and the average is represented in the table"}, "[2]": {"tested_on": "oxotremorine induced tremors", "test": "Oxotremorine antagonism (tremor, salivation, lacrimation scores)", "type": "in vivo, NMRI mice", "description": "Oxotremorine is a cholinergic drug which is a muscarine agonist and induces parkinsonism-like signs such as tremors, ataxia, spasticity, salivation, lacrimation and hypothermia. Oxotremorine is a cholinergic drug, which induces excessive tremors in mice. If a drug is having anti-cholinergic property like atropine the tremors will be decreased.\nProcedure: Groups of 6-10 male NMRI mice weighing 18-22 g are used. They are dosed orally with the test compound or the standard (5 mg/kg benezatropine mesilate) 1 hour prior to the administration of 0.5 mg/kg oxotremorine. Tremor is scored after oxotremorine dosage in periods of 5 min for 1 hour.\nAfter the administration of 0.5 mg/kg of Oxotremorine, the tremors started within 15 mins and were sustained for 30 mins."}, "[3]": {"tested_on": "Haloperidol induced catalepsy", "test": "Haloperidol induced catalepsy in mice (bar test)", "type": "in vivo, Swiss Albino mice", "from_the_text": "Haloperidol is neuroleptic agent that blocks the Dopamine D2 receptor in the brain. This precipitates the extra-pyramidal side effects which can be measured by the “Bar Test for catalepsy in mice”. Catalepsy in mice is defined as a failure to correct an externally imposed unusual posture over a prolonged period of time. […] Haloperidol induced catalepsy can be reversed if dopaminergic drugs that supply dopamine to the striatum of the brain since it increase competitive antagonism.\nProcedure: Swiss Albino mice of either sex weighing 23-28 g are used. Catalepsy was induced by Haloparidol (0.5 mg/kg i.p.) and assessed by bar test up to 3 hrs. Six animals are dosed with the saline, test drug and the standard intraperitonially. The animals are placed in translucent plastic boxes with a wooden dowel mounted horizontally 2.5 cm from the floor of the box. The animals are allowed to adapt to the box for 2 min. Then, each animal is grasped gently around the shoulders and under the forepaws and placed carefully on the dowel. The amount of the time spent with at least one forepaw on the bar is determined. When the animal removes its paws, the time is recorded and the mice are repositioned on the bar. Three trials are conducted for each animal at 30, 60, 120 and 360 min, with 6 animals in each group."}, "[4]": {"details": "positive control 5 mg/kg and oxytremorine, n = 6"}},
  "data": [
    {"compound": "CN1CCc2cccc3c2[C@H]1Cc1ccc(O)c(O)c1-3", "note": "[Apomorphine]", "values": [
      {"measurement": "Contra-lateral Rotation", "setting": "[1]; Apomorphine 0.3 mg/kg", "value": 169.33},
      {"measurement": "Ipsilateral Rotation", "setting": "[1]; Apomorphine 0.3 mg/kg", "value": 0.67}
    ]},
    {"compound": "CN1[C@@H]2CC[C@H]1C[C@@H](OC(=O)C(CO)c1ccccc1)C2", "note": "(stereo partly shown) [Atropine]", "values": [
      {"measurement": "decrease in severity of tremors", "setting": "[2]; Atropine 1 mg/kg, FIG. 2", "value": "significant decrease in severity of tremors"},
      {"measurement": "Lacrimation score at 30 minutes", "setting": "[2]; Atropine, dose not given", "value": 0.6},
      {"measurement": "Salivation score at 30 minutes", "setting": "[2]; Atropine, dose not given", "value": 0.8},
      {"measurement": "Tremor score 5 minutes", "setting": "[2]; [4]", "value": 0.9},
      {"measurement": "Tremor score 15 minutes", "setting": "[2]; [4]", "value": 0.9},
      {"measurement": "Tremor score 30 minutes", "setting": "[2]; [4]", "value": 1.0},
      {"measurement": "Tremor score 45 minutes", "setting": "[2]; [4]", "value": 1.3}
    ]},
    {"compound": "N[C@@H](Cc1ccc(O)c(O)c1)C(=O)O", "note": "[L-Dopa, Dihydroxy Phenyl Alanine]", "values": [
      {"measurement": "reduction of catalepsy", "setting": "[3]; L-DOPA (10)+Hal (0.5) compared with Hal (0.5) at respective time, FIG. 1", "value": "significant at P<0.001"},
      {"measurement": "reducing catalepsy, standard versus test drug", "setting": "[3]; L-Dopa 10 mg/kg compared with test drug 100 mg/kg", "value": "more effective than the test drug at a dosage of 100 mg/kg"},
      {"measurement": "Contra-lateral Rotation", "setting": "[1]; L-Dopa 10 mg/kg", "value": 45.67},
      {"measurement": "Ipsilateral Rotation", "setting": "[1]; L-Dopa 10 mg/kg", "value": 0.83}
    ]}
  ]
}
